{"source": "patent US8314098B2", "about": "“Pyrazolo-pyrimidine compounds” (Ajinomoto Co., Inc., priority 2008, dated 2012)", "data": [{"tested_on": "IL-12p70 (the complex of IL-12p35 and p40)", "test": "IL-12p70 production inhibition in macrophages derived from mouse abdomen (IFN-γ/SAC stimulation, ELISA)", "assay_type": "cell-based", "conditions": "Macrophage; mouse (Balb/c) abdominal macrophages, 100 ng/mL mouse IFN-γ + 0.05% SAC, overnight; TFA salts tested where prepared as such; read-out: IL-12p70-Inhibitory Activity IC50", "description": "One milliliter each of a 3% (w/v) thioglycolate solution was intraperitoneally administered to mice (female Balb/c mice), the abdominal cells of each mouse were recovered after 5 or 6 days from the administration of the thioglycolate solution and the adhesive cells were collected and used in the exaluation procedures. To a culture medium containing such adhesive cells, there were added 100 ng/mL of mouse interferon-γ and a 0.05% (v/v) liquid containing killed cells derived from Staphylococcus aureus Cowan I strain (SAC) and a candidate compound and then the mixture was cultivated overnight. After the completion of the cultivation, the survival ratios were determined, there were quantitatively determined the quantities of IL-12p70 (the complex of IL-12p35 and p40) and IL-12p40 or TNF-α according to the ELISA assays while making use of the recovered supernatant of the culture medium and the 50% production-inhibitory concentration (IC50) was calculated for each case (see Table 1 and Tables 1-9 for IL-12p70 and TNF-α and Tables 1 to 10 for IL-12p40).", "units": {"IC50": "nM"}, "values": [{"compound": "CC(/C=N/Nc1cc(N2CCOCC2)n2nc(-c3ccccc3)cc2n1)=C\\c1ccccc1", "note": "[Compound 63, N-(2-methyl-3-phenyl-alkylidene)-N′-(7-morpholin-4-yl-2-phenyl-pyrazolo[1,5-a]pyrimidin-5-yl)-hydrazine]", "IC50": 320}, {"compound": "COc1ccc(/C=N/Nc2cc(N3CCOCC3)n3nc(-c4ccncc4)cc3n2)cc1C", "note": "[Compound 92, N-(4-methoxy-3-methyl-benzylidene)-N′-(7-morpholin-4-yl-2-pyridin-4-yl-pyrazolo[1,5-a]pyrimidin-5-yl)-hydrazine]", "IC50": 44}, {"compound": "Cc1cccc(/C=N/Nc2cc(N3CCOCC3)n3nc(C4CCN(C(=O)OCc5ccccc5)CC4)cc3n2)c1", "note": "[Compound 131, N-[2-(1-benzyloxy-carbonyl-piperidin-4-yl)-7-morpholin-4-yl-pyrazolo[1,5-a]pyrimidin-5-yl]-N′-(3-methyl-benzylidene)-hydrazine]", "IC50": 100}, {"compound": "CCc1cccc(/C=N/Nc2cc(N3CCOCC3)n3nc(-c4cccnc4)cc3n2)c1", "note": "[Compound 115]", "IC50": 55}, {"compound": "Cc1cccc(/C=N/Nc2cc(N3CCOCC3)n3nc(C(=O)N(C)c4ccncc4)cc3n2)c1", "note": "[Compound 135, 5-[N-(3-methyl-benzylidene)-hydrazino]-7-morpholin-4-yl-pyrazolo[1,5-a]pyrimidine-2-carboxylic acid methyl-pyridin-4-yl-amide]", "IC50": 130}, {"compound": "Fc1cccc(/C=N/Nc2cc(N3CCOCC3)n3nc(-c4ccncc4)cc3n2)c1", "note": "[Compound 130, N-(3-fluoro-benzylidene)-N′-(7-morpholin-4-yl-2-pyridin-4-yl-pyrazolo[1,5-a]pyrimidin-5-yl)-hydrazine]", "IC50": 140}, {"compound": "OB(O)c1cccc(/C=N/Nc2cc(N3CCOCC3)n3nc(-c4ccccc4)cc3n2)c1", "note": "[Compound 139, N-(3-boronyl-benzylidene)-N-(7-morpholin-4-yl-2-phenyl-pyrazolo[1,5-a]pyrimidin-5-yl)-hydrazine]", "IC50": 250}, {"compound": "COc1ccc(/C=N/Nc2cc(N3CCOCC3)n3nc(-c4ccccc4)cc3n2)cc1", "note": "[Compound 30, N-(4-methoxy-benzylidene)-N′-(7-morpholin-4-yl-2-phenyl-pyrazolo[1,5-a]pyrimidin-5-yl)-hydrazine]", "IC50": 180}, {"compound": "Cc1ccc(-c2cc3nc(N/N=C/c4c[nH]c5ccccc45)cc(N4CCOCC4)n3n2)cn1", "note": "[Compound 112, N-(1H-indol-3-yl-methylidene)-N′-[2-(6-methyl-pyridin-3-yl)-7-morpholin-4-yl-pyrazolo[1,5-a]pyrimidin-5-yl]-hydrazine]", "IC50": 7.5}, {"compound": "CN(Cc1ccccc1)Nc1cc(N2CCOCC2)n2nc(-c3ccccc3)cc2n1", "note": "[Compound 66, N-benzyl-N-methyl-N′-(7-morpholin-4-yl-2-phenyl-pyrazolo[1,5-a]pyrimidin-5-yl)-hydrazine]", "IC50": 330}, {"compound": "COc1ccccc1/C=N/Nc1cc(N2CCOCC2)n2nc(-c3ccccc3)cc2n1", "note": "[Compound 28, N-(2-methoxy-benzylidene)-N′-(7-morpholin-4-yl-2-phenyl-pyrazolo[1,5-a]pyrimidin-5-yl)-hydrazine]", "IC50": 160}, {"compound": "CC(=O)N1CCC(c2cc3nc(N/N=C/c4cccc(C)c4)cc(N4CCOCC4)n3n2)CC1", "note": "[Compound 133, N-[2-(1-acetyl-piperidin-4-yl)-7-morpholin-4-yl-pyrazolo-[1,5-a]pyrimidin-5-yl]-N′-(3-methyl-benzylidene)-hydrazine]", "IC50": 96}, {"compound": "Cc1cccc(/C=N/Nc2cc(N3CCOCC3)n3nc(OCc4ccccc4)cc3n2)c1", "note": "[Compound 134, N-(2-benzyloxy-7-morpholin-4-yl-pyrazolo[1,5-a]pyrimidin-5-yl)-N′-(3-methyl-benzylidene)-hydrazine]", "IC50": 130}, {"compound": "Cc1nc2sccn2c1/C=N/Nc1cc(N2CCOCC2)n2nc(-c3ccccc3)cc2n1", "note": "[Compound 75, N-(6-methy-imidazo[2,1-b]thiazole-5-methylidene)-N′-(7-morpholin-4-yl-2-phenyl-pyrazolo[1,5-a]pyrimidin-5-yl)-hydrazine]", "IC50": 290}, {"compound": "Cc1ccc(-c2cc3nc(N/N=C/c4coc5ccccc45)cc(N4CCOCC4)n3n2)cn1", "note": "[Compound 111, N-benzofuran-3-yl-methylidene-N′-[2-(6-methyl-pyridin-3-0)-7-morpholin-4-yl-pyrazolo[1,5-a]pyrimidin-5-yl]-hydrazine]", "IC50": 37}, {"compound": "COCCN(CCOC)c1ccc(-c2cc3nc(N/N=C/c4cccc(C)c4)cc(N4CCOCC4)n3n2)cc1", "note": "[Compound 32, N-{2-[4-bis-(2-methoxy-ethyl-amino)-phenyl]-7-morpholin-4-yl-pyrazolo[1,5-a]pyrimidin-5-yl}-N′-(3-methyl-benzylidene)-hydrazine]", "IC50": 9.6}, {"compound": "Cc1cccc(/C=N/Nc2cc(N3CCOCC3)n3nc(N4CCCCC4)cc3n2)c1", "note": "[Compound 100, N-(3-methyl-benzylidene)-N-(7-morpholin-4-yl-2-piperidin-1-yl-pyrazolo[1,5-a]pyrimidin-5-yl)-hydrazine]", "IC50": 360}, {"compound": "Cc1[nH]c2ccc(/C=N/Nc3cc(N4CCOCC4)n4nc(-c5cccnc5)cc4n3)cc2c1C", "note": "[Compound 105, N-(2,3-dimethyl-1H-indol-5-yl-methylidene)-N-(7-morpholin-4-yl-2-pyridin-3-yl-pyrazolo[1,5-a]pyrimidin-5-yl)-hydrazine]", "IC50": 89}, {"compound": "C(=N\\Nc1cc(N2CCOCC2)n2nc(-c3ccccc3)cc2n1)/c1cccc2[nH]ccc12", "note": "[Compound 72, N-(1H-indol-4-yl-methylidene)-N′-(7-morpholin-4-yl-2-phenyl-pyrazolo[1,5-a]pyrimidin-5-yl)-hydrazine]", "IC50": 190}, {"compound": "C(=N\\Nc1cc(N2CCOCC2)n2nc(-c3cnccn3)cc2n1)/c1c[nH]c2ccccc12", "note": "[Compound 93, N-(1H-indol-3-yl-methylidene)-N′-(7-morpholin-4-yl-2-pyrazin-2-yl-pyrazolo[1,5-a]pyrimidin-5-yl)-hydrazine]", "IC50": 6.5}, {"compound": "Cc1cccc(/C=N/Nc2cc(N3CCOCC3)n3nc(OCCOc4ccccc4)cc3n2)c1", "note": "[Compound 37, N-(3-methyl-benzylidene)-N′-[7-morpholin-4-yl-2-(2-phenoxy-ethoxy)-pyrazolo[1,5-a]pyrimidin-5-yl]-hydrazine]", "IC50": 110}, {"compound": "C(=N\\Nc1cc(N2CCOCC2)n2nc(-c3ccncc3)cc2n1)/c1ccc2occc2c1", "note": "[Compound 125, N-benzofuran-5-yl-methylidene-N′-(7-morpholin-4-yl-2-pyridin-4-yl-pyrazolo[1,5-a]pyrimidin-5-yl)-hydrazine]", "IC50": 36}, {"compound": "Clc1cccc(/C=N/Nc2cc(N3CCOCC3)n3nc(-c4ccccc4)cc3n2)c1", "note": "[Compound 26, N-(3-chloro-benzylidene)-N′-(7-morpholin-4-yl-2-phenyl-pyrazolo[1,5-a]pyrimidin-5-yl)-hydrazine]", "IC50": 120}, {"compound": "C(=N\\Nc1cc(N2CCOCC2)n2nc(-c3ccc(N4CCOCC4)nc3)cc2n1)/c1c[nH]c2ccccc12", "note": "[Compound 86, N-(1H-indol-3-yl-methylidene)-N′-[7-morpholin-4-yl-2-(6-morpholin-4-yl-pyridin-3-yl)-pyrazolo[1,5-a]pyrimidin-5-yl]-hydrazine]", "IC50": 1.8}, {"compound": "Cc1[nH]c2ccccc2c1/C=N/Nc1cc(N2CCOCC2)n2nc(-c3ccccc3)cc2n1", "note": "[Compound 78, N-(2-methyl-1H-indol-3-yl-methylidene)-N′-(7-morpholin-4-yl-2-phenyl-pyrazolo[1,5-a]pyrimidin-5-yl)-hydrazine]", "IC50": 440}, {"compound": "C(=N\\Nc1cc(N2CCOCC2)n2nc(-c3ccncc3)cc2n1)/c1ccc2c(c1)OCCO2", "note": "[Compound 113, N-(2,3-dihydro-benzo[1,4]dioxin-6-yl-methylidene)-N′-(7-morpholin-4-yl-2-pyridin-4-yl-pyrazolo[1,5-a]pyrimidin-5-yl)-hydrazine]", "IC50": 98}, {"compound": "Cc1ccsc1/C=N/Nc1cc(N2CCOCC2)n2nc(-c3ccccc3)cc2n1", "note": "[Compound 62, N-(3-methyl-thiophen-2-yl-methylidene)-N′-(7-morpholin-4-yl-2-phenyl-pyrazolo[1,5-a]pyrimidin-5-yl)-hydrazine]", "IC50": 320}, {"compound": "Cc1cccc(/C=N/Nc2cc(N3CCOCC3)n3nc(-c4cc(C)on4)cc3n2)c1", "note": "[Compound 98, N-(3-methyl-benzylidene)-N′-[2-(5-methylisoxazol-3-yl)-7-morpholin-4-yl-pyrazolo[1,5-a]pyrimidin-5-yl]-hydrazine]", "IC50": 26}, {"compound": "Cc1[nH]c2ccc(/C=N/Nc3cc(N4CCOCC4)n4nc(-c5cnccn5)cc4n3)cc2c1C", "note": "[Compound 107, N-(2,3-dimethyl-1H-indol-5-yl-methylidene)-N-(7-morpholin-4-yl-2-pyrazin-2-yl-pyrazolo[1,5-a]pyrimidin-5-yl)-hydrazine]", "IC50": 170}, {"compound": "Cc1ccc(/C=N/Nc2cc(N3CCOCC3)n3nc(-c4ccccc4)cc3n2)o1", "note": "[Compound 54, N-(5-methyl-furan-2-yl-methylidene)-N′-(7-morpholin-4-yl-2-phenyl-pyrazolo[1,5-a]pyrimidin-5-yl)-hydrazine]", "IC50": 300}, {"compound": "Cc1cccc(/C=N/Nc2cc(N3CCOCC3)n3nc(N4CCOCC4)cc3n2)c1", "note": "[Compound 127, N-(3-methyl-benzylidene)-N-(2,7-dimorpholin-4-yl-pyrazolo[1,5-a]-pyrimidin-5-yl)-hydrazine]", "IC50": 160}, {"compound": "C(=N\\Nc1cc(N2CCOCC2)n2nc(-c3ccncc3)cc2n1)/c1csc2ccccc12", "note": "[Compound 109, N-benzo[b]thiophen-3-yl-methylidene-N′-(7-morpholin-4-yl-2-pyridin-4-yl-pyrazolo[1,5-a]pyrimidin-5-yl)-hydrazine]", "IC50": 490}]}]}
